Results on 1 compound are retold here after ChEMBL document CHEMBL1153943, “Exploring the pharmacokinetic properties of phosphorus-containing selective HDAC 1 and 2 inhibitors (SHI-1:2)” (Bioorg Med Chem Lett, 2009).

Each structure is given as a SMILES string. Calls of active or inactive are those of the source. The rule behind the calls is not given here.

One series has as its target Histone deacetylase 3 (Homo sapiens, UniProt O15379). Briefly: Inhibition of HDAC3.
The target in another series is Histone deacetylase 1 (Homo sapiens, UniProt Q13547). Briefly: Inhibition of HDAC1.
Chain of Histone deacetylase 1 (Q13547 whole entry): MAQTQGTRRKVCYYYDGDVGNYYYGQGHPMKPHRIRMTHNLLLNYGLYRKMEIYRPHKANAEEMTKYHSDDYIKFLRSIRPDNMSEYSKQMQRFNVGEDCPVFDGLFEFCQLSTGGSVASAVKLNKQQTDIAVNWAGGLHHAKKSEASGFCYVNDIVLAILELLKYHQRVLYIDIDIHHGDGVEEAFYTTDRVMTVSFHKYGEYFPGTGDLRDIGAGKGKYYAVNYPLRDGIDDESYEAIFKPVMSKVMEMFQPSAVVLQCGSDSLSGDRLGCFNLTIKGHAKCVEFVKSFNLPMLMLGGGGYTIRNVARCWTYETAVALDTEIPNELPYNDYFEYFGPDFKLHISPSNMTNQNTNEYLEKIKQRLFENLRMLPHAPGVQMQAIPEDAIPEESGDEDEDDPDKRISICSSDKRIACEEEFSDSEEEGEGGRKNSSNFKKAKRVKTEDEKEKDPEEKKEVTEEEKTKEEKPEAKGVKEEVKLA
A further series concerns the target Histone deacetylase 2 (Homo sapiens, UniProt Q92769). Briefly: Inhibition of HDAC2.
In series [1] the test system is Mus musculus. Briefly: Effect on histone H2B acetylation in human HCT116 cells xenografted in CD1 mouse assessed as change in ratio of acetylated to deacetylated histone level at 150 mg/kg, po QD for 3 days measured after 8 hrs. As to conditions: HCT-116. The class given is functional, organism-based. More on the design: dose 150 mg/kg.
Another series has as its target Histone deacetylase 4 (Homo sapiens, UniProt P56524). Briefly: Inhibition of HDAC4.
In the next series the target is Histone deacetylase 5 (Homo sapiens, UniProt Q9UQL6). Briefly: Inhibition of HDAC5.
Chain of Histone deacetylase 5 (Q9UQL6 whole entry): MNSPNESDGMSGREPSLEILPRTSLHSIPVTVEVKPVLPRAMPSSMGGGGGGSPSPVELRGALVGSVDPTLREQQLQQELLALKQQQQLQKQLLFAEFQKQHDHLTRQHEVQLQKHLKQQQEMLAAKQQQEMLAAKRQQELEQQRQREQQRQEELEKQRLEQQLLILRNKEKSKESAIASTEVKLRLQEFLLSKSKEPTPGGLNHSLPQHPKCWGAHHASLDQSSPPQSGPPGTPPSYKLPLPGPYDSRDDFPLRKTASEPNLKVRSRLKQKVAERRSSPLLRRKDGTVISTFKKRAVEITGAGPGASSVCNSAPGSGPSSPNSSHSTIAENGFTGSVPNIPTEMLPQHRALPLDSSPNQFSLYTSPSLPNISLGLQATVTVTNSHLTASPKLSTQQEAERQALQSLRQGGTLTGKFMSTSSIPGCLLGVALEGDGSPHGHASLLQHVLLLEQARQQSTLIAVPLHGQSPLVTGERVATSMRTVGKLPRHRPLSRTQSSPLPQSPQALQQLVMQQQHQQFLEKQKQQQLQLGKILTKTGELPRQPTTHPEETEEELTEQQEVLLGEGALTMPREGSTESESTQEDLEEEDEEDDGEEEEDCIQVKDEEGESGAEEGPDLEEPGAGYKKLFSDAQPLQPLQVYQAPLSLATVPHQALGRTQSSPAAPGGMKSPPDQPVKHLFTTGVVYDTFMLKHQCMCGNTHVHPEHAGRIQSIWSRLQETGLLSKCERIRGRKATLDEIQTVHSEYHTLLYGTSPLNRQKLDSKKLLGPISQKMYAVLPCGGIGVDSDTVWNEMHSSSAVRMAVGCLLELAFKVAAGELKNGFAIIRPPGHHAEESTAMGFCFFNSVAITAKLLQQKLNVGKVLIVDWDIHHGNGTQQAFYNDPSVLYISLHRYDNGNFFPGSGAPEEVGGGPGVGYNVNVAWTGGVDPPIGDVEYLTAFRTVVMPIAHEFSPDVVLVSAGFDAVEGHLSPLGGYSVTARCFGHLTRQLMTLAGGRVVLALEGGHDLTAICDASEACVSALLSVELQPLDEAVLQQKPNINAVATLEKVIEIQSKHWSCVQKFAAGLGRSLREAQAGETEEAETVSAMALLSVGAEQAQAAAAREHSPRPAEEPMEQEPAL
Series [2] deals with T1, Protein deacetylase HDAC6 (Homo sapiens, UniProt Q9UBN7).
T1 sequence (Q9UBN7 whole entry): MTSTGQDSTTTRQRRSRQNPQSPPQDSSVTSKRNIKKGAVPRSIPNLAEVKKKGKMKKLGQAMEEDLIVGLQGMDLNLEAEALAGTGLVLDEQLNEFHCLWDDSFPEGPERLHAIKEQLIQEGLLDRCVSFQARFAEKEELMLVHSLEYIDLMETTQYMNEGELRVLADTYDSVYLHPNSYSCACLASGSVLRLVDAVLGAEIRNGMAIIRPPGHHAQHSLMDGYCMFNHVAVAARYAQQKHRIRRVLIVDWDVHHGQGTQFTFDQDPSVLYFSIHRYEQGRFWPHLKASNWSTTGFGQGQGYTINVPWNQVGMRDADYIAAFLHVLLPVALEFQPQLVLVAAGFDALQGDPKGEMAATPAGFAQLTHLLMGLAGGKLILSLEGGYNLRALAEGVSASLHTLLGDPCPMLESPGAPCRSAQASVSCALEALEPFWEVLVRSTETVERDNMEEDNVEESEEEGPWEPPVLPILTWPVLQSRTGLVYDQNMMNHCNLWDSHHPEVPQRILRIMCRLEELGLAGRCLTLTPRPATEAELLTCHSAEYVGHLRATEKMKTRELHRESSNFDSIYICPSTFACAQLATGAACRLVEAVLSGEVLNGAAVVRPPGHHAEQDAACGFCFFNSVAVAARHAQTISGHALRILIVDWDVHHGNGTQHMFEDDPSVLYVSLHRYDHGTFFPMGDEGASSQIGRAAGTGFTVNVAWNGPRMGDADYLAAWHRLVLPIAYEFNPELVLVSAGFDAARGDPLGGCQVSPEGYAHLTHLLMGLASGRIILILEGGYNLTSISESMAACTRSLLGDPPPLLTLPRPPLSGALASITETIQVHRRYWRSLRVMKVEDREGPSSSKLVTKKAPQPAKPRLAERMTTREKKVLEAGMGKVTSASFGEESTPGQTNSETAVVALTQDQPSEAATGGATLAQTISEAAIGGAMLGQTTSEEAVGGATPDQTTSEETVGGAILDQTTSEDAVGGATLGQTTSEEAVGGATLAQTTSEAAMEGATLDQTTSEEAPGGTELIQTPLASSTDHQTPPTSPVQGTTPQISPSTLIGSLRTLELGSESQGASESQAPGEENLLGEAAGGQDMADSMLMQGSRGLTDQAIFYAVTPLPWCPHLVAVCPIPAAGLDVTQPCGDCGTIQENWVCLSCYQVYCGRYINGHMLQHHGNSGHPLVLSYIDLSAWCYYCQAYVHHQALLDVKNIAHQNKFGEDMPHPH
Briefly: Inhibition of HDAC6.

The target of the next series is T2, Histone deacetylase 7 (Homo sapiens, UniProt Q8WUI4).
T2 sequence (Q8WUI4 whole entry): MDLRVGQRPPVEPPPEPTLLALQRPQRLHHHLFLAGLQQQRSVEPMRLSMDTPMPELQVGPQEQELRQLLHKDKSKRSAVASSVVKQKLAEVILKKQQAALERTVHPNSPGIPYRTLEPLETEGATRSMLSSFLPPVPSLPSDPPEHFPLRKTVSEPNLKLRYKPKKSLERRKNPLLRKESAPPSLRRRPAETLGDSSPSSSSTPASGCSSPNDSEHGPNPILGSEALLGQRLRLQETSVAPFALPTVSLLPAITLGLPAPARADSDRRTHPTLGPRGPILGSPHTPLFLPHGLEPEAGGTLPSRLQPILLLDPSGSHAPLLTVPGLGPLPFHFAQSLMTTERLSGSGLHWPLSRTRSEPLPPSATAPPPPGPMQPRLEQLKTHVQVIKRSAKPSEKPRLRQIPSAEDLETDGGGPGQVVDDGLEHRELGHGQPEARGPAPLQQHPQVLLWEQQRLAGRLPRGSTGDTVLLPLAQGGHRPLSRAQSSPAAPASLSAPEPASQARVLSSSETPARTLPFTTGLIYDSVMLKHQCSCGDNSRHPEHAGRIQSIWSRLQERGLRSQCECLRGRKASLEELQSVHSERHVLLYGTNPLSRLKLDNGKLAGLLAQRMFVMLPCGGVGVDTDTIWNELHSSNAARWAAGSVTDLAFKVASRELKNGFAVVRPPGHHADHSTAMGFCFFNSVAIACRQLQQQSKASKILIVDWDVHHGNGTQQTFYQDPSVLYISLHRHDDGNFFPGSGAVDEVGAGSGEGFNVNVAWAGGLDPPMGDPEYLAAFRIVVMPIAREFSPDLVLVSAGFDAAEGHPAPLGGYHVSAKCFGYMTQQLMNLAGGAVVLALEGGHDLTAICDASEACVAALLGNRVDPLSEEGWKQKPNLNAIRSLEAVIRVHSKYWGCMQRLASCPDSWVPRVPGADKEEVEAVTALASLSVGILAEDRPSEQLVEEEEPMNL
Briefly: Inhibition of HDAC7.

The next series deals with T3, Histone deacetylase 8 (Homo sapiens, UniProt Q9BY41).
T3 sequence (Q9BY41 whole entry): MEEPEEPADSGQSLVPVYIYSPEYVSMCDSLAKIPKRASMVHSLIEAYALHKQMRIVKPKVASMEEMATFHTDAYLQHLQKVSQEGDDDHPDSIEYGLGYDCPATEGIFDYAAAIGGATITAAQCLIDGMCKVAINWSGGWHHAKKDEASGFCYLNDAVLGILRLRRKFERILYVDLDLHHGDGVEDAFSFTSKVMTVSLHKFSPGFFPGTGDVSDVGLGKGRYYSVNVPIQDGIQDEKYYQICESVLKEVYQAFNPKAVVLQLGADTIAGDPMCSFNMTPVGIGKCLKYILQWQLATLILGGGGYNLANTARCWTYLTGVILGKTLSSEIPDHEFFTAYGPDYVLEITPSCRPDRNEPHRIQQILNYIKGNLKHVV
Briefly: Inhibition of HDAC8.

The next series has as its target T4, Histone deacetylase 11 (Homo sapiens, UniProt Q96DB2).
T4 sequence (Q96DB2 whole entry): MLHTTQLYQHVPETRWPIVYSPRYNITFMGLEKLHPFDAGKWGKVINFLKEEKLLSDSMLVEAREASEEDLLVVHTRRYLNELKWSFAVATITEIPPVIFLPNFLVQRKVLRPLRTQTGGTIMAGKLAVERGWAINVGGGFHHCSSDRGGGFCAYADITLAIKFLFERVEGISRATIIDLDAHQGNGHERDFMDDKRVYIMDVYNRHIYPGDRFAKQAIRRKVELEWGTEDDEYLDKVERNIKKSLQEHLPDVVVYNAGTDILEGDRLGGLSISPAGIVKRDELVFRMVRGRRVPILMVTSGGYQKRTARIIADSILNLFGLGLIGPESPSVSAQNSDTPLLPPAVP
Briefly: Inhibition of HDAC11.

In series [3] the test system is HCT-116. Briefly: Antiproliferative activity against human HCT116 cells after 72 hrs. The class given is functional. As to conditions: HCT-116, 72 h.
Series [4] concerns HCT-116. Briefly: Antitumor activity against human HCT116 cells xenografted in po dosed mouse assessed as reduction in tumor growth dosed daily for 21 days. Type of series: functional, organism-based.
In series [5] the test system is Mus musculus. Briefly: Toxicity in human HCT116 cells xenografted CD1 mouse at 150 to 300 mg/kg, po after 21 days. Type of series: organism-based, HCT-116. More on the design: dose 150-300 mg/kg, route oral. As to conditions: in vivo, 504 h.

Chain of Histone deacetylase 4 (P56524 whole entry): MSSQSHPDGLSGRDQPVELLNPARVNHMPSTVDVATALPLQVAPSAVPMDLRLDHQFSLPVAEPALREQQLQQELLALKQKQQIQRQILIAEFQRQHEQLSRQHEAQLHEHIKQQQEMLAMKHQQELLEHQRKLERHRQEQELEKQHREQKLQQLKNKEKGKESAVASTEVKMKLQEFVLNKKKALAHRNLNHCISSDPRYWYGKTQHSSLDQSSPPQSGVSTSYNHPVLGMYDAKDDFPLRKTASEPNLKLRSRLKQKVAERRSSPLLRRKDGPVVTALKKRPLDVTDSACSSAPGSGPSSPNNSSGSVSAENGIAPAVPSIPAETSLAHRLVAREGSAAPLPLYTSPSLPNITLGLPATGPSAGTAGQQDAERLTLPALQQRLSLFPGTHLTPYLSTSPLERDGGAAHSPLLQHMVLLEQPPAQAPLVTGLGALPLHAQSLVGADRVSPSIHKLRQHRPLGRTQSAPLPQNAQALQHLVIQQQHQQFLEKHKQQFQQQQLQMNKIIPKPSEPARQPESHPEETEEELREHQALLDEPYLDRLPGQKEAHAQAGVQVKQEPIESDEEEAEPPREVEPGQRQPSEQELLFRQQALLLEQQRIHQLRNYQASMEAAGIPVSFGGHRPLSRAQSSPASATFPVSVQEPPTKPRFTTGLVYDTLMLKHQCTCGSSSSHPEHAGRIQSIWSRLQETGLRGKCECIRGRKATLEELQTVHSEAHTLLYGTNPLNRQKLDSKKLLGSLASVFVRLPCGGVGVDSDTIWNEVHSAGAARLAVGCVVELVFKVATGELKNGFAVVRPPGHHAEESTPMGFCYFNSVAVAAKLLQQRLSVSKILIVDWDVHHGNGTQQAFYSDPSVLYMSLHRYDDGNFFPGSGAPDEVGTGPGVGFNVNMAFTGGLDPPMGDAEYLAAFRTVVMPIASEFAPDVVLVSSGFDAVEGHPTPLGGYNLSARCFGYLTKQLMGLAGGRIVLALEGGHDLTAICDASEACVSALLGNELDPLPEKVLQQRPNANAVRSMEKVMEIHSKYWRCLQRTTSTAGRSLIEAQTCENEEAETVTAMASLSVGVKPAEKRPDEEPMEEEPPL
Chain of Histone deacetylase 3 (O15379 whole entry): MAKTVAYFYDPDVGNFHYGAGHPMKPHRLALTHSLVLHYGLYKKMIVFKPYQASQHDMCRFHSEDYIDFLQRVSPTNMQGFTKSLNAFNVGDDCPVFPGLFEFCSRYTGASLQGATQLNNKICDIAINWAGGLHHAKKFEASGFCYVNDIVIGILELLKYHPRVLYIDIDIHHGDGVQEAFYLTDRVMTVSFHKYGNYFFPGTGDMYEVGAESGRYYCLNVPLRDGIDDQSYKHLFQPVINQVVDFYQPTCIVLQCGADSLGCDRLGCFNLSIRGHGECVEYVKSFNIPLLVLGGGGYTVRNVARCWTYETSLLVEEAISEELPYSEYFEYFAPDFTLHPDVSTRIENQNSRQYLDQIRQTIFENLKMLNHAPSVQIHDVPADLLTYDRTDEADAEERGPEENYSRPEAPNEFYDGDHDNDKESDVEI
Chain of Histone deacetylase 2 (Q92769 whole entry): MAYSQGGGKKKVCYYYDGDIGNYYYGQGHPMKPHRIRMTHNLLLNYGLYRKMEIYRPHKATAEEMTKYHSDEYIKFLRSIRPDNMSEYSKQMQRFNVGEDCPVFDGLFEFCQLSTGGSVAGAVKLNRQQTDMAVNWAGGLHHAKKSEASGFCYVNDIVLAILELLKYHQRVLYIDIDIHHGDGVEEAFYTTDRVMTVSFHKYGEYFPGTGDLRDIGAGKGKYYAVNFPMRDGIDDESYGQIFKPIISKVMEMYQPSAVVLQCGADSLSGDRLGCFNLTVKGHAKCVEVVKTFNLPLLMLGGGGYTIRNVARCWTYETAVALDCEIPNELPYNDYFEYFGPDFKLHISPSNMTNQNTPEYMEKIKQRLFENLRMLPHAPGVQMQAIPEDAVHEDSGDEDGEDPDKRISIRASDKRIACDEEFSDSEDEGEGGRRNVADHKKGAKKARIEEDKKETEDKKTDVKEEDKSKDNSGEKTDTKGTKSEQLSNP

`CCOP(=O)(CNCc1ccc(C(=O)Nc2cc(-c3cccs3)ccc2N)cc1)OCC`: the IC50 was 12 µM at Histone deacetylase 3; 0.0077 µM against Histone deacetylase 1; 0.014 µM on Histone deacetylase 2; over 50 µM against Histone deacetylase 4; over 50 µM at Histone deacetylase 5; over 50 µM in series [2]. Also, the IC50 against Histone deacetylase 7 was over 50 µM; on Histone deacetylase 8 it was 37 µM; on Histone deacetylase 11, over 50 µM. In addition, in the series with Mus musculus [1], the outcome was Active. In the series with HCT-116 [3], this compound came in with a GI50 of 0.3 µM. Moreover, the Activity entry was “Dose-dependent effect” in the series with HCT-116 [4] and “Non-toxic” with Mus musculus [5].
